Counter-ions that a name gives are not always drawn. Like-named read-outs stand apart in the source and are kept apart here.
Legend:
Format in all cases: cell-based, human
[1] = tested on: MOLM-13 (MLL-AF9) cells; experiment: Combination proliferation assay with Compound A2 (CellTiter-Glo, Chou-Talalay CI); conditions: 7 Day Cotreatment Model; for Combination effect with Compound A2 (Table 5): MOLM13; for Combination effect with Compound A2 (Table 4): MOLM-13 (MLL-AF9)
Procedure: (§1) The acute myelogenous leukemia cell lines MV4-11 (MLL-AF4) and MOLM-13 (MLL-AF9) were obtained from American Type Culture Collection (ATCC; Rockville, Md.) and Deutsche Sammlung von Mikroorganismen and Zellkulturen (DSMZ; Braunschweig, Germany) respectively.
(§2) Studies were performed using MLL-rearranged cell lines in vitro to evaluate the anti-proliferative effect of a combination of two agents together on cell growth. Initial proliferation studies were performed to determine the IC50 of a given compound in each cell line. The cell counts were measured by ATP quantitation using the Promega Cell Titer Glo kit and luminescence values corresponded to the amount of ATP in a given well.
(§3) Compounds were evaluated for synergy in the co-treatment phase by testing the compounds in a concentration range which was bracketed around their IC50 values. The compounds were plated to a 96 well plate in a matrix format (FIG. 3) which includes increasing concentrations of each drug in the combination in a constant ratio, in addition to the effect of each compound alone in the study. Cells were seeded and grown in the log-linear phase for 3 or 7 days in the co-treatment phase. Minimum inhibition (DMSO alone) controls were used in each plate to calculate fraction affected (Fa) of a test well. DMSO concentration was kept at 0.1% v/v.
(§4) The drug combination analysis was performed utilizing the Chou-Talalay method Synergy was determined using the software package Calcusyn by Biosoft. The combination index (CI) is a quantitative term used to describe the level of synergy or antagonism in a given test system. A combination index less than one indicates synergy, and a CI greater than one indicates antagonism. Further, strong synergism is achieved when the CI value falls below 0.3.
(§5) The HP-D300 digital dispenser (Tecan) was used to dispense compounds in a combinatorial matrix. […] Cell viability was measured via ATP content using CellTiter-Glo® (Promega).
(§6) Viability was determined using CellTiter-Glo® (Promega).
Cell viability was measured via ATP content using CellTiter-Glo® (Promega).
as §2, with “Proliferation studies” for “Studies”, “MOLM-13, MV4-11 and SKM-1” for “MLL-rearranged”, “cancer cell killing” for “anti-proliferative”, “IC50 values” for “IC50”, “correspond” for “corresponded”
(§7) These studies were performed to evaluate both the combinatorial effect of compounds on cell killing and the durability of the effect by washing out one of the agents.
(§8) Compounds evaluated for synergy in the co-treatment phase were tested in a range which was bracketed around the IC50's. The compounds were plated to a 96 well plate in a matrix format which includes increasing concentrations of each drug in the combination in a constant ratio, in addition to the effect of each compound alone in the study. Cells were seeded and grown in the log-linear phase for 3 or 7 days in the cotreatment phase. Maximum and minimum inhibition (DMSO alone) controls were used in each plate to calculate fraction affected (Fa) of a test well. DMSO concentration was kept at 0.1% v/v. The drug combination analysis was performed utilizing the Chou-Talalay method. Synergy was determined using the software package Calcusyn by Biosoft. The combination index (CI) is the term used to describe the level of synergy or antagonism in a given test system. A combination index less than one indicates synergy, and a CI greater than one indicates antagonism.
(§9) The drug combination analysis was performed using the Chou-Talalay method. Graphs representing values of combination index (CI) versus Fractional effect (Fa) known as Fa-CI plots were generated and synergy was evaluated.

[2] = tested on: SKM-1 cells; experiment: Example 6 combination screen: 300 nM EPZ-5676 pre-treatment, second compound 72 h, ATPLite, IC50 shift
Procedure: Cells were then equilibrated in incubators for 24 hours before treatment with a second compound. Treated assay plates were incubated with a second compound for 72 hours. After this time, plates were developed for endpoint analysis using ATPLite to measure ATP content, which is used as an indicator of cell viability.
“N/D” means that IC50 of the second compound could not be determined for both conditions.

[3] = tested on: MV4-11 (MLL-AF4) cells; experiment: Combination proliferation assay with Compound A2 (CellTiter-Glo, Chou-Talalay CI); conditions: MV4-11
Procedure: as §1, §2, §3, §4, §5, §6
as §2, with “Proliferation studies” for “Studies”, “MOLM-13, MV4-11 and SKM-1” for “MLL-rearranged”, “cancer cell killing” for “anti-proliferative”, “IC50 values” for “IC50”, “correspond” for “corresponded”
as §7, §8
as §9, with “evaluated. Drug synergy was statistically defined by CI values less than 1, antagonism by CI>1 and additive effect by CI equal to 1.” for “evaluated.”

[4] = SKM-1 cells, 300 nM EPZ-5676 pre-treatment (4 + 3 days) vs DMSO, then 2nd compound 72 h, ATPLite, IC50 shift of 2nd compound

Molecule | Summary of Combination Studies: SKM-1 [2, 4] | also measured
Cn1c(=O)n(-c2ccc(C(C)(C)C#N)cc2)c2c3cc(-c4cnc5ccccc5c4)ccc3ncc21 [BEZ235] | – | Combination effect with Compound A2 (Table 5) [1]: Additive (additive effect by CI equal to 1)
Arsenic Trioxide | – | Summary of Combination Studies: SKM-1 [2]: 2.0
C[C@H]1C[C@@H]2[C@H]([C@@H](O)C[C@@]3(C)[C@H]2CC[C@]3(O)C(=O)CO)[C@@]2(C)C=CC(=O)C=C12 [Methylprednisolone] | Synergy (considered synergistic if the IC50 value of the second compound decreased by 2-fold or more when EPZ-5676 was added as compared to the DMSO control) | –
O=C(CCCCCCC(=O)Nc1ccccc1)NO [Vorinostat] | – | Combination effect with Compound A2 (Table 4) [1]: Additive/Synergy
C=C[C@@]1(C)CC(=O)[C@]2(O)[C@@]3(C)[C@@H](O)CCC(C)(C)[C@@H]3[C@H](OC(=O)CCN(C)C)[C@H](OC(C)=O)[C@@]2(C)O1.Cl [NKH 477] | Synergy (considered synergistic if the IC50 value of the second compound decreased by 2-fold or more when EPZ-5676 was added as compared to the DMSO control) | –
CC(C)C[C@H](NC(=O)CNC(=O)c1cc(Cl)ccc1Cl)B(O)O [MLN2238] | Synergy (considered synergistic if the IC50 value of the second compound decreased by 2-fold or more when EPZ-5676 was added as compared to the DMSO control) | –
C#Cc1cccc(Nc2ncnc3cc(OCCOC)c(OCCOC)cc23)c1 [Erlotinib Hydrochloride] | Synergy (considered synergistic if the IC50 value of the second compound decreased by 2-fold or more when EPZ-5676 was added as compared to the DMSO control) | –
CC1=C(/C=C/C(C)=C/C=C/C(C)=C/C(=O)O)C(C)(C)CCC1 [Tretinoin] | Synergy (considered synergistic if the IC50 value of the second compound decreased by 2-fold or more when EPZ-5676 was added as compared to the DMSO control) | –
COc1ccc(-c2ccc3c(N4CCOC[C@@H]4C)nc(N4CCOC[C@@H]4C)nc3n2)cc1CO [AZD 8055] | Synergy (considered synergistic if the IC50 value of the second compound decreased by 2-fold or more when EPZ-5676 was added as compared to the DMSO control) | –
COc1ccc(CCc2nc3cc(-c4c(C)noc4C)ccc3n2C[C@H](C)N2CCOCC2)cc1Cl [SGC-CBP30] | Synergy (considered synergistic if the IC50 value of the second compound decreased by 2-fold or more when EPZ-5676 was added as compared to the DMSO control) | –
C[C@@H]1COCCN1c1cc(C2(S(C)(=O)=O)CC2)nc(-c2cccc3[nH]ccc23)n1 [AZ20] | – | Combination effect with Compound A2 (Table 5) [1]: Synergy (Drug synergy was statistically defined by CI values less than 1)
CC[C@@H]1C(=O)N(C)c2cnc(Nc3ccc(C(=O)N[C@H]4CC[C@H](N5CCN(CC6CC6)CC5)CC4)cc3OC)nc2N1C(C)C [Volasertib] | – | Combination effect with Compound A2 (Table 5) ([3]; 7 Day Cotreatment Model): Antagonstic
CN(C)C(=O)c1cc2cnc(Nc3ccc(N4CCNCC4)cn3)nc2n1C1CCCC1 [LEE011] | Synergy (considered synergistic if the IC50 value of the second compound decreased by 2-fold or more when EPZ-5676 was added as compared to the DMSO control) | –
CC(C)C[C@H](NC(=O)[C@H](Cc1ccccc1)NC(=O)c1cnccn1)B(O)O [Velcade, bortezomib] | – | Combination effect with Compound A2 (Table 4) [1]: Combination Benefit
CC1(C)CCC(CN2CCN(c3ccc(C(=O)NS(=O)(=O)c4ccc(NCC5CCOCC5)c([N+](=O)[O-])c4)c(Oc4cnc5[nH]ccc5c4)c3)CC2)=C(c2ccc(Cl)cc2)C1 [ABT-199] | – | Combination effect with Compound A2 (Table 4) [1]: Additive--> Synergy
S=c1nc[nH]c2nc[nH]c12 [Mercaptopurine] | – | Combination effect with Compound A2 (Table 4) [1]: Additive--> Synergy
CC(C)CC(=O)Nc1[nH]nc2c1CN(C(=O)C1CCN(C)CC1)C2(C)C [PHA-793887] | Synergy (considered synergistic if the IC50 value of the second compound decreased by 2-fold or more when EPZ-5676 was added as compared to the DMSO control) | –
O=C1c2c(O)ccc(O)c2C(=O)c2c(NCCNCCO)ccc(NCCNCCO)c21 [Mitoxantrone] | – | Combination effect with Compound A2 ([3]; 7 Day Cotreatment (Example 1)): Synergy (A combination index less than one indicates synergy)
CS(=O)(=O)N1CCN(Cc2cc3nc(-c4cccc5[nH]ncc45)nc(N4CCOCC4)c3s2)CC1 [GDC-0941] | Synergy (considered synergistic if the IC50 value of the second compound decreased by 2-fold or more when EPZ-5676 was added as compared to the DMSO control) | –
NC1(c2ccc(-c3nc4ccn5c(=O)[nH]nc5c4cc3-c3ccccc3)cc2)CCC1 [MK2206] | Synergy (considered synergistic if the IC50 value of the second compound decreased by 2-fold or more when EPZ-5676 was added as compared to the DMSO control) | Combination effect with Compound A2 (Table 5) [1]: Additive (additive effect by CI equal to 1)
N#Cc1c(C2CCNCC2)cc(-c2c(O)cccc2OCC2CC2)nc1N [IKK-2 Inhibitor VIII] | Synergy (considered synergistic if the IC50 value of the second compound decreased by 2-fold or more when EPZ-5676 was added as compared to the DMSO control) | –
Nc1cccc2c1CN(C1CCC(=O)NC1=O)C2=O (stereo not shown) [Lenalidomide] | – | Combination effect with Compound A2 (Table 4) [1]: Combination Benefit
CN(C)CC[C@H](CSc1ccccc1)Nc1ccc(S(=O)(=O)NC(=O)c2ccc(N3CCN(Cc4ccccc4-c4ccc(Cl)cc4)CC3)cc2)cc1[N+](=O)[O-] [ABT-737] | Synergy (considered synergistic if the IC50 value of the second compound decreased by 2-fold or more when EPZ-5676 was added as compared to the DMSO control) | –
Cc1sc2c(c1C)C(c1ccc(Cl)cc1)=N[C@@H](CC(=O)Nc1ccc(O)cc1)c1nnc(C)n1-2 [OTX015] | Synergy (considered synergistic if the IC50 value of the second compound decreased by 2-fold or more when EPZ-5676 was added as compared to the DMSO control) | –
COc1ccc(Cc2nccc3cc(OC)c(OC)cc23)cc1OC [Papaverine Hydrochloride] | Synergy (considered synergistic if the IC50 value of the second compound decreased by 2-fold or more when EPZ-5676 was added as compared to the DMSO control) | –
CCN(CC)CCNC(=O)c1c(C)[nH]c(/C=C2\C(=O)Nc3ccc(F)cc32)c1C [Sunitinib Malate] | 2.0 | –
COCc1c(C(C)C)nc(C(C)C)c(/C=C/[C@@H](O)C[C@@H](O)CC(=O)O)c1-c1ccc(F)cc1 [Cerivastatin Sodium] | Synergy (considered synergistic if the IC50 value of the second compound decreased by 2-fold or more when EPZ-5676 was added as compared to the DMSO control) | –
O=C(Nc1cccc(Nc2ncc(Br)c(NCCc3cnc[nH]3)n2)c1)N1CCCC1 [BX-912] | Synergy (considered synergistic if the IC50 value of the second compound decreased by 2-fold or more when EPZ-5676 was added as compared to the DMSO control) | –
O=C(Nc1ccncc1)c1cc([N+](=O)[O-])ccc1Cl [Compound T0070907] | – | Combination effect with Compound A2 (Table 5) [1]: Additive (additive effect by CI equal to 1)
C=C(c1ccc(C(=O)O)cc1)c1cc2c(cc1C)C(C)(C)CCC2(C)C [Bexarotene] | Synergy (considered synergistic if the IC50 value of the second compound decreased by 2-fold or more when EPZ-5676 was added as compared to the DMSO control) | –

Source: patent US20190083521A1, “COMBINATION THERAPY FOR TREATING CANCER” (Epizyme, Inc., priority 2014, published 2019)
